Test results reported in the supplement of paper PMC10307832.

Key:
Test in all cases: relative viability (nuclei count vs DMSO), 5 days (fraction); higher = more cells survive
[1] = compound: CO[C@@H]1[C@H](N(C)C(=O)c2ccccc2)C[C@H]2O[C@]1(C)n1c3ccccc3c3c4c(c5c6ccccc6n2c5c31)C(=O)NC4 [Midostaurin] + CC(=O)c1c(C)c2cnc(Nc3ccc(N4CCNCC4)cn3)nc2n(C2CCCC2)c1=O [Palbociclib] (partner 0.5 µM)
In short: (§1)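 For relative viability, nuclei counts in treated wells were divided by those in vehicle wells. Lung cancer cell lines had been pin-tool dosed in 1536-well plates the day after seeding and cultured for 5 days, then fixed and stained in one step (final 0.05% Triton X-100, 1% formaldehyde, 1 ug/ml Hoechst) and imaged at 4×. Doses were one drug alone or a fixed anchor-drug dose plus five library-drug doses (not always all listed) in √10 steps, and values are duplicate-plate medians.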

Midostaurin + Luminespib = compound: CO[C@@H]1[C@H](N(C)C(=O)c2ccccc2)C[C@H]2O[C@]1(C)n1c3ccccc3c3c4c(c5c6ccccc6n2c5c31)C(=O)NC4 [Midostaurin] + CCNC(=O)c1noc(-c2cc(C(C)C)c(O)cc2O)c1-c1ccc(CN2CCOCC2)cc1 [Luminespib] (partner 0.01 µM)
In short: as §1

[2] = compound: COc1cc(-c2nn([C@H]3CC[C@H](N4CCN(C(C)=O)CC4)CC3)c3ncnc(N)c23)ccc1NC(=O)c1cc2ccccc2n1C + CC(=O)Nc1cccc(-n2c(=O)n(C3CC3)c(=O)c3c(Nc4ccc(I)cc4F)n(C)c(=O)c(C)c32)c1 [Trametinib] (partner 0.02 µM)
In short: as §1

[3] = compound: COc1cc(-c2nn([C@H]3CC[C@H](N4CCN(C(C)=O)CC4)CC3)c3ncnc(N)c23)ccc1NC(=O)c1cc2ccccc2n1C + C[C@]1(O)C[C@@H](c2nc(-c3ccc4ccc(-c5ccccc5)nc4c3)c3c(N)nccn32)C1 [Linsitinib] (partner 1 µM)
In short: as §1

[4] = compound: COc1cc(-c2nn([C@H]3CC[C@H](N4CCN(C(C)=O)CC4)CC3)c3ncnc(N)c23)ccc1NC(=O)c1cc2ccccc2n1C + Nc1ncn([C@H]2C[C@H](O)[C@@H](CO)O2)c(=O)n1 [Decitabine] (partner 2 µM)
In short: as §1

Cell Line	relative viability ([1]; first compound 0.01 µM)	relative viability ([1]; first compound 0.03162 µM)	relative viability ([1]; first compound 0.1 µM)	relative viability ([1]; first compound 0.3162 µM)	relative viability (Midostaurin + Luminespib; first compound 0.01 µM)	relative viability (Midostaurin + Luminespib; first compound 0.03162 µM)	relative viability (Midostaurin + Luminespib; first compound 0.1 µM)	relative viability (Midostaurin + Luminespib; first compound 0.3162 µM)	relative viability ([2]; first compound 0.0128 µM)	relative viability ([2]; first compound 0.04048 µM)	relative viability ([2]; first compound 0.128 µM)	relative viability ([2]; first compound 1.28 µM)	relative viability ([3]; first compound 0.0128 µM)	relative viability ([3]; first compound 0.04048 µM)	relative viability ([3]; first compound 0.128 µM)	relative viability ([3]; first compound 1.28 µM)	relative viability ([4]; first compound 0.0128 µM)	relative viability ([4]; first compound 0.04048 µM)	relative viability ([4]; first compound 0.128 µM)	relative viability ([4]; first compound 1.28 µM)
201T	0.366	0.368	0.35	0.406	1.02	0.98	0.997	1.06	0.743	0.727	0.695	0.585	0.979	1.05	0.927	0.665	0.929	0.919	0.809	0.615
A549													0.552	0.666	0.619	0.465	0.237	0.252	0.228	0.245
A-427	0.486	0.566	0.513	0.508	0.869	0.905	0.753	0.953	0.82	0.462	0.759	0.711	1.16	1.08	1.07	0.963	0.529	0.589	0.571	0.666
ABC-1	0.709	1.01	0.679	0.559		0.571	0.641	0.591					0.709	0.887	0.749	0.697	1.19	1.03	0.835	0.998
CAL-12T	0.513	0.492	0.405	0.308	0.174	0.172	0.212	0.174	0.331	0.289	0.349	0.326	0.851	0.533	0.801	0.74				
Calu-6													0.901	0.657	0.858	0.785				
ChaGo-K-1	0.912	1	0.889	0.935	0.619	0.627	0.525	0.626	0.872	0.904	0.722	0.68					0.493	0.513	0.497	0.508
EBC-1													0.77	0.959	0.898	0.896				
HCC-78	0.536	0.474	0.474	0.469					0.851	0.536	0.776	0.453	0.573	0.643	0.513	0.436	0.674	0.689	0.701	0.539
HCC-366	0.364	0.409	0.389	0.384					0.309	0.281	0.305	0.179	0.531	0.513	0.531	0.257	0.379	0.344	0.351	0.306
IA-LM													0.606	0.299	0.698	0.815				
NCI-H522	1.01	0.876	0.967	1.32	1.07	1.51	1.26	1.21	0.77	0.514	0.723	0.73					0.665	0.7	0.738	0.717
NCI-H596					1.13	1.17	0.869	1.18	0.915	0.8	0.88	0.554	1.1	1.3	1.12	0.748	1.33	1.18	0.89	0.716
NCI-H1299													1.01	0.871	0.999	0.655				
NCI-H1563					0.505	0.515	0.501	0.492					1.24	1.12	1.31	0.903				
NCI-H1623					0.526	0.647	0.513	0.632												
NCI-H1648	0.35			0.285					0.478	0.311	0.386	0.293					0.595	0.447	0.482	0.452
NCI-H1650	0.297	0.409	0.343	0.522	0.19	0.175	0.187	0.173	0.489	0.448	0.586	0.452					0.49	0.497	0.341	0.515
NCI-H1703													0.984	0.193	0.637	0.323				
NCI-H2170	0.394	0.397	0.406	0.454	0.628	0.509	0.633	0.767	0.992	0.797	0.919	0.876					0.533	0.53	0.479	0.471
NCI-H2228	0.569	0.954	0.842	0.845	0.155	0.163	0.164	0.134	0.448	0.146	0.539	0.377	0.54	0.883	0.649	0.643				
NCI-H2342	0.477	0.538	0.491	0.547	0.704	0.708	0.738	0.754	0.92	0.766	0.886	0.745					0.812	0.783	0.777	0.609
SW 900	0.574	0.587	0.545	0.639	0.192	0.198	0.189	0.151	1.05	0.82	0.778	0.432					0.524	0.381	0.507	0.52
